Counter-ions that a name gives are not always drawn. Like-named read-outs stand apart in the source and are kept apart here.
Tests used:
[1] = Solubility in water at room temperature; type: physicochemical; details: for solubility: water
[2] = Compatibility study, binary mixtures (1:1) of excipient and test substance; type: physicochemical
Text: Generally, any tendency of instability is exacerbated when a compound of formula (II) is formulated with various excipients. It is clear that the salt form is preferred as drug substance in any binary mixtures of said compound.

[3] = type: physicochemical; details: for Degradation (percentage increase of related substances): 6 months
Procedure: Upon storage without any special precautions being taken, some 3-quinolinecarboxamide derivatives of formula (I) are degraded at an unacceptable rate. At storage during accelerated conditions, that is 40° C. and a relative humidity of 75%, the degradation of some 3-quinoline-carboxamide derivatives can exceed 2% in a period of 6 months (Table 1).
This is evident from a comparison of N-ethyl-N-phenyl-5-chloro-1,2-dihydro-4-hydroxy-1-methyl-2-oxo-3-quinolinecarboxamide (hereinafter called compound A) with the sodium salt of N-ethyl-N-phenyl-5-chloro-1,2-dihydro-4-hydroxy-1-methyl-2-oxo-3-quinolinecarboxamide (hereinafter called compound A sodium). While at 40° C. and a relative humidity of 75% less than 0.01% of compound A sodium in solid state is converted to degradation products in a period of 24 months, 0.31% of compound A is degraded during a 6-month period. Another example of a 3-quinolinecarboxamide derivative susceptible to degradation is N-ethyl-N-phenyl-5-ethyl-1,2-dihydro-4-hydroxy-1-methyl-2-oxo-3-quinolinecarboxamide (hereinafter called compound B), see Table 1.

[4] = Investigation of the degradation rate (reactivity index) in solution; type: physicochemical; details: 1-% 0.01M hydrochloric acid in n-propanol, 45 to 60° C., HPLC; relative to Roquinimex defined to 1.0; index 2.0 = 26% per hour
Procedure: The degradation rate, hereinafter called the reactivity index, of compound of formula (I) was determined in solution. Roquinimex (Merck Index 12th Ed., No. 8418; Linomide®, LS2616, N-methyl-N-phenyl-1,2-dihydro-4-hydroxy-1-methyl-2-oxo-3-quinolinecarboxamide) was selected as a reference compound with the reactivity index defined to 1.0. A medium of 1-% 0.01M hydrochloric acid in n-propanol was selected. The reaction temperature was in the range of 45 to 60° C. The 3-quinolinecarboxamide derivative of formula (I) was added to the n-propanol solution. The reaction transfers the compound to an n-propylester. The reaction was stopped after 0, 2 and 4 hours, and analysis was carried out by means of HPLC with UV detection. The disappearance of the 3-quinolinecarboxamide derivative was used for evaluation of the reactivity index, but as an alternative also the formation of the n-propylester may be used. A reactivity index of […] at 60° C., a reactivity index of 2.0 corresponds to a degradation rate of 26% per hour etc.

[5] = 1:1 mixture with Colloidal silica (Aerosil 200), +40° C./75% RH, 6 months
[6] = 1:1 mixture with Maize Starch, +40° C./75% RH, 6 months
[7] = 1:1 mixture with Mannitol (Pearlitol 200SD), +40° C./75% RH, 6 months
[8] = 1:1 mixture with Microcrystalline Cellulose (Avicel PH-, +40° C./75% RH, 6 months)

CCN(C(=O)c1c(O)c2c(Cl)cccc2n(C)c1=O)c1ccccc1.[Na] [Compound A sodium, N-Ethyl-N-phenyl-5-chloro-1,2-dihydro-4-hydroxy-1-methyl-2-oxo-3-quinolinecarboxamide sodium salt]
solubility ([1]; room temperature): 138000 µg/mL
Degradation (percentage increase of related substances) [2, 5]: 1.5%
Degradation (percentage increase of related substances) [2, 6]: 0.05%
Degradation (percentage increase of related substances) [2, 7]: 0.05%
Degradation (percentage increase of related substances) [2, 8]: 0.31%
“Shelf-life” (storage time without degradation exceeding 0.5%) [3]: >6 months
Degradation (percentage increase of related substances) [3]: <0.01%^3
Converted to degradation products ([3]; 24 months): less than 0.01%

CCN(C(=O)c1c(O)c2c(Cl)cccc2n(C)c1=O)c1ccccc1 [Compound A, N-ethyl-N-phenyl-5-chloro-1,2-dihydro-4-hydroxy-1-methyl-2-oxo-3-quinolinecarboxamide]
Reactivity index [4]: 3.1
Degradation (percentage increase of related substances) [2, 5]: 20%
Degradation (percentage increase of related substances) [2, 6]: 0.41%
Degradation (percentage increase of related substances) [2, 7]: 0.45%
Degradation (percentage increase of related substances) [2, 8]: 1.1%
“Shelf-life” (storage time without degradation exceeding 0.5%) [3]: >6 months
Degradation (percentage increase of related substances) [3]: 0.31%

CCc1cccc2c1c(O)c(C(=O)N(CC)c1ccccc1)c(=O)n2C [Compound B, N-ethyl-N-phenyl-5-ethyl-1,2-dihydro-4-hydroxy-1-methyl-2-oxo-3-quinolinecarboxamide]
Reactivity index [4]: 4.6
“Shelf-life” (storage time without degradation exceeding 0.5%) [3]: <1 months
Degradation (percentage increase of related substances) [3]: 2.0%

CN(C(=O)c1c(O)c2c(Cl)cccc2n(C)c1=O)c1ccc(F)cc1F [Compound C, N-methyl-N-(2,4-difluorophenyl)-5-chloro-1,2-dihydro-4-hydroxy-1-methyl-2-oxo-3-quinolinecarboxamide]
Reactivity index [4]: 2.6

Cc1cccc2c1c(O)c(C(=O)N(C)c1ccc(C(F)(F)F)cc1)c(=O)n2C [Compound D, N-methyl-N-(4-trifluorophenyl)-1,2-dihydro-1,5-dimethyl-4-hydroxy-1-methyl-2-oxo-3-quinolinecarboxamide]
Reactivity index [4]: >10

CCN(C(=O)c1c(O)c2c3c(ccc2n(C)c1=O)OCO3)c1ccccc1 [Compound E, N-ethyl-N-phenyl-5,6-methylenedioxy-1,2-dihydro-4-hydroxy-1-methyl-2-oxo-3-quinolinecarboxamide]
Reactivity index [4]: 2.9

CCN(C(=O)c1c(O)c2c(SC)cccc2n(C)c1=O)c1ccccc1 [Compound F, N-ethyl-N-phenyl-5-methylthio-1,2-dihydro-4-hydroxy-1-methyl-2-oxo-3-quinolinecarboxamide]
Reactivity index [4]: >10

CCN(C(=O)c1c(O)c2c(Cl)cccc2n(C)c1=O)c1ccccc1 [Example 3, N-Ethyl-N-phenyl-5-chloro-1,2-dihydro-4-hydroxy-1-methyl-2-oxo-3-quinolinecarboxamide calcium salt]
Solubility in water (in words) [1]: sparingly soluble in water
solubility ([1]; room temperature): ~1000 µg/mL

CCc1cccc2c1c(O)c(C(=O)N(CC)c1ccccc1)c(=O)n2C.[Li] [Example 5, N-Ethyl-N-phenyl-5-ethyl-1,2-dihydro-4-hydroxy-1-methyl-2-oxo-3-quinolinecarboxamide lithium salt]
solubility ([1]; room temperature): 18000 µg/mL

CCc1cccc2c1c(O)c(C(=O)N(CC)c1ccccc1)c(=O)n2C.[Ca] [Example 6A, Crystalline N-Ethyl-N-phenyl-5-ethyl-1,2-dihydro-4-hydroxy-2-methyl-2-oxo-3-quinolinecarboxainide calcium salt]
Solubility in water ([1]; room temperature): 300 µg/mL

CCc1cccc2c1c(O)c(C(=O)N(CC)c1ccccc1)c(=O)n2C [Example 7, N-Ethyl-N-phenyl-5-ethyl-1,2-dihydro-4-hydroxy-1-methyl-2-oxo-3-quinolinecarboxamide zinc salt]
solubility ([1]; room temperature): 300 µg/mL

CN(C(=O)c1c(O)c2ccccc2n(C)c1=O)c1ccccc1 [Roquinimex, N-methyl-N-phenyl-1,2-dihydro-4-hydroxy-1-methyl-2-oxo-3-quinolinecarboxamide, reference compound]
Reactivity index [4]: 1.0

From patent US8754104B2, “Crystalline salts of quinoline compounds and methods for preparing them” (Active Biotech AB, priority 2004, dated 2014)
